Source: ChEMBL document CHEMBL4350990, “Benzensulfonamides bearing spyrohydantoin moieties act as potent inhibitors of human carbonic anhydrases II and VII and show neuropathic pain attenuating effects” (Eur J Med Chem, 2019)
Activity calls are given as the source filed them. No cut-off for these calls is given here.

Legend:
[1] = target: Carbonic anhydrase 1 (Homo sapiens, UniProt P00915); experiment: Inhibition of human carbonic anhydrase 1 incubated for 15 mins prior to testing by stopped-flow CO2 hydration assay
[2] = target: Carbonic anhydrase 2 (Homo sapiens, UniProt P00918); experiment: Inhibition of human carbonic anhydrase 2 incubated for 15 mins prior to testing by stopped-flow CO2 hydration assay
[3] = test system: Mus musculus; experiment: Analgesic activity in oxaliplatin-induced neuropathic pain CD-1 albino mouse model assessed as decrease in pain-related behaviour measured as licking latency at 100 mg/kg, po treated on day 15 post oxaliplatin treatment and measured after 45 mins by cold plate test; format: functional, organism-based
[4] = target: Carbonic anhydrase 7 (Homo sapiens, UniProt P43166); experiment: Inhibition of human carbonic anhydrase 7 incubated for 15 mins prior to testing by stopped-flow CO2 hydration assay
[5] = target: Carbonic anhydrase 9 (Homo sapiens, UniProt Q16790); experiment: Inhibition of human carbonic anhydrase 9 incubated for 15 mins prior to testing by stopped-flow CO2 hydration assay
[6] = target: Carbonic anhydrase 13 (Homo sapiens, UniProt Q8N1Q1); experiment: Inhibition of human carbonic anhydrase 13 incubated for 15 mins prior to testing by stopped-flow CO2 hydration assay
[7] = target: Carbonic anhydrase 12 (Homo sapiens, UniProt O43570); experiment: Inhibition of human carbonic anhydrase 12 incubated for 15 mins prior to testing by stopped-flow CO2 hydration assay
[8] = test system: Mus musculus; experiment: Analgesic activity in oxaliplatin-induced neuropathic pain CD-1 albino mouse model assessed as licking latency at 30 to 100 mg/kg, po treated on day 15 post oxaliplatin treatment by cold plate test; format: functional, organism-based
[9] = target: Carbonic anhydrase 5A, mitochondrial (Homo sapiens, UniProt P35218); experiment: Inhibition of human carbonic anhydrase 5A incubated for 15 mins prior to testing by stopped-flow CO2 hydration assay
[10] = target: Carbonic anhydrase 4 (Homo sapiens, UniProt P22748); experiment: Inhibition of human carbonic anhydrase 4 incubated for 15 mins prior to testing by stopped-flow CO2 hydration assay
[11] = target: Carbonic anhydrase 6 (Homo sapiens, UniProt P23280); experiment: Inhibition of human carbonic anhydrase 6 incubated for 15 mins prior to testing by stopped-flow CO2 hydration assay
[12] = target: Carbonic anhydrase 3 (Homo sapiens, UniProt P07451); experiment: Inhibition of human carbonic anhydrase 3 incubated for 15 mins prior to testing by stopped-flow CO2 hydration assay
[13] = target: Carbonic anhydrase 5B, mitochondrial (Homo sapiens, UniProt Q9Y2D0); experiment: Inhibition of human carbonic anhydrase 5B incubated for 15 mins prior to testing by stopped-flow CO2 hydration assay
[14] = test system: Mus musculus; experiment: Analgesic activity in oxaliplatin-induced neuropathic pain CD-1 albino mouse model assessed as decrease in pain-related behaviour measured as licking latency at 100 mg/kg, po treated on day 15 post oxaliplatin treatment and measured after 45 to 60 mins by cold plate test; format: functional, organism-based
[15] = test system: Mus musculus; experiment: Analgesic activity in orally dosed oxaliplatin-induced neuropathic pain CD-1 albino mouse model assessed as decrease in pain-related behaviour measured as licking latency treated on day 15 post oxaliplatin treatment by cold plate test; format: functional, organism-based

Carbonic anhydrase 6, sequence (P23280 whole entry): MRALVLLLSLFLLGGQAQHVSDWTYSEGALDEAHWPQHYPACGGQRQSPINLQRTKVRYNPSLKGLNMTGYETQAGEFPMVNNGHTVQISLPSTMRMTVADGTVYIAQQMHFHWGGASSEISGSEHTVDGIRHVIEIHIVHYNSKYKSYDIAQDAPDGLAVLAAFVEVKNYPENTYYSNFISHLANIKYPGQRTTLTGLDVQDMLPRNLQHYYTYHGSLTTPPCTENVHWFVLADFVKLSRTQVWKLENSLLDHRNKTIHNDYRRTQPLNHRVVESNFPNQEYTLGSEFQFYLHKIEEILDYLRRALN
Carbonic anhydrase 1, sequence (P00915 whole entry): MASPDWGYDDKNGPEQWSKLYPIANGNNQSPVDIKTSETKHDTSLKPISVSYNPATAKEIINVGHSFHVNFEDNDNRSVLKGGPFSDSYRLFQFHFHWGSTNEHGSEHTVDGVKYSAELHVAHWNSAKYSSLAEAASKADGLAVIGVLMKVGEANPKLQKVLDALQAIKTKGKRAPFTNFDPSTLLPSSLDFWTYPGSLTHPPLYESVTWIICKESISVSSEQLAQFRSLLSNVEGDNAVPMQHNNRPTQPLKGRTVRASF
Carbonic anhydrase 3, sequence (P07451 whole entry): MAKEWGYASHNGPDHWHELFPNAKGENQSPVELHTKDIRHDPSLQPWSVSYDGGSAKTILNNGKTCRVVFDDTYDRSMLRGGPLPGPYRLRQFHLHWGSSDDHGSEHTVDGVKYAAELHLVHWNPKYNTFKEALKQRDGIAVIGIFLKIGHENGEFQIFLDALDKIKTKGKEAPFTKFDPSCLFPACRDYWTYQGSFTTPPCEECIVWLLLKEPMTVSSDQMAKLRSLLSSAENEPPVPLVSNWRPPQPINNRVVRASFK
Carbonic anhydrase 7, sequence (P43166 whole entry): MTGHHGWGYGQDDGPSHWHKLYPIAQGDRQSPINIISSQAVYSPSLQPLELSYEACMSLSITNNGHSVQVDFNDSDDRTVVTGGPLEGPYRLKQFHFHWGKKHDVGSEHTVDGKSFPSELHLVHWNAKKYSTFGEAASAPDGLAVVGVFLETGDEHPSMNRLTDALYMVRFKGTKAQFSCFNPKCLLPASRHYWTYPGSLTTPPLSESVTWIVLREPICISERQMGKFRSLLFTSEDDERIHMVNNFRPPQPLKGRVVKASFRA
Carbonic anhydrase 5B, mitochondrial, sequence (Q9Y2D0 whole entry): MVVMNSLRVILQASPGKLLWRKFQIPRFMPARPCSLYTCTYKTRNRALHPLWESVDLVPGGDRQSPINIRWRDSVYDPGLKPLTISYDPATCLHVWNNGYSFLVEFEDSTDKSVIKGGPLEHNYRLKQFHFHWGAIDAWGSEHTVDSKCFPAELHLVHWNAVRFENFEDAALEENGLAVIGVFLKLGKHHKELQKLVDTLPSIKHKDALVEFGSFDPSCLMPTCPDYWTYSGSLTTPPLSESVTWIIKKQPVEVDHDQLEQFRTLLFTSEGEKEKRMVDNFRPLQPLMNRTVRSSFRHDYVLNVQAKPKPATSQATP
Carbonic anhydrase 4, sequence (P22748 whole entry): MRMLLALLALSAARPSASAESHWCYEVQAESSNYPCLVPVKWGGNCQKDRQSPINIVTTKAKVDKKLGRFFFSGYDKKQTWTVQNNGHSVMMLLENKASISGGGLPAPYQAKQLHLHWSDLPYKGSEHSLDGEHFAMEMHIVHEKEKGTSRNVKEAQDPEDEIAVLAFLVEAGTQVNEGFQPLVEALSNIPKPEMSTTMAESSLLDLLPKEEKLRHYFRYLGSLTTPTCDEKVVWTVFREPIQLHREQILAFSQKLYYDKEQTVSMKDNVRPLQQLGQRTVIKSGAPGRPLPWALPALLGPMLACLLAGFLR
Carbonic anhydrase 12, sequence (O43570 whole entry): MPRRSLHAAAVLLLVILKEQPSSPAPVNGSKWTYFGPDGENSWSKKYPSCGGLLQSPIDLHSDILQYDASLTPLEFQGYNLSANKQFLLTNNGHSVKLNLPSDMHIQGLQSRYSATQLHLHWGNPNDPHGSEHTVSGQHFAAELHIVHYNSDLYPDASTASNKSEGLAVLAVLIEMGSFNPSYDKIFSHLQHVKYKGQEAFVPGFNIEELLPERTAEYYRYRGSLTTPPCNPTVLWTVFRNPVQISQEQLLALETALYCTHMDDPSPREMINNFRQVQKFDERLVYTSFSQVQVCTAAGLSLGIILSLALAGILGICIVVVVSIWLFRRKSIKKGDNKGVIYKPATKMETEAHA
Carbonic anhydrase 13, sequence (Q8N1Q1 whole entry): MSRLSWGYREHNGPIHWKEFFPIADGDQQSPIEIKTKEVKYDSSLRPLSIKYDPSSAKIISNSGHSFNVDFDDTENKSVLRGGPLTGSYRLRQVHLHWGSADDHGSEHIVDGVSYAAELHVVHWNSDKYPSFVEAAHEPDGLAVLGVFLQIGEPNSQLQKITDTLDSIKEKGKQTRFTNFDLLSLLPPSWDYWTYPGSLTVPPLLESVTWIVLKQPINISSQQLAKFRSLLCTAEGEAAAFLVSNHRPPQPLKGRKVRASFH
Carbonic anhydrase 5A, mitochondrial, sequence (P35218 whole entry): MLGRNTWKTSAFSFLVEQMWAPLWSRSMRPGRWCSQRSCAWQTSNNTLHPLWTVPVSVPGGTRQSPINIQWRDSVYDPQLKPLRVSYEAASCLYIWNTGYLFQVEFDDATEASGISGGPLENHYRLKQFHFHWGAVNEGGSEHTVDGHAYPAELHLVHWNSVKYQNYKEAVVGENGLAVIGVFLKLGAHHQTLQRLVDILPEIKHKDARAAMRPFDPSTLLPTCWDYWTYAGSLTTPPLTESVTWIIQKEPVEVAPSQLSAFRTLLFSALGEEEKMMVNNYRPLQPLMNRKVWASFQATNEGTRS

SMILES | Ki [1] | Ki [2] | Ki [4] | Ki [5] | Ki [6] | Ki [7] | Ki [9] | Ki [10] | Ki [11] | Ki [12] | Ki [13] | Activity [3] | Activity [8] | Activity [14] | Activity [15]
CC1CCCC2(C1)NC(=O)N(CC(=O)NCc1ccc(S(N)(=O)=O)cc1)C2=O (stereo not given) | 0.853 µM | 0.0083 µM | 0.0044 µM | 0.229 µM | > 10 µM | 0.0333 µM | – | – | – | – | – | – | – | – | –
CC1CCCC2(C1)NC(=O)N(CC(=O)NCCc1ccc(S(N)(=O)=O)cc1)C2=O (stereo not given) | 0.306 µM | 0.0007 µM | 0.003 µM | 0.477 µM | > 10 µM | 0.0834 µM | 8.68 µM | 7.19 µM | > 10 µM | > 10 µM | > 10 µM | – | – | – | –
NS(=O)(=O)c1ccc(CNC(=O)CN2C(=O)NC3(CCCCC3)C2=O)cc1 | 0.47 µM | 0.0207 µM | 0.0054 µM | 0.105 µM | > 10 µM | 0.728 µM | – | – | – | – | – | – | – | – | –
NS(=O)(=O)c1ccc(CNC(=O)CN2C(=O)NC3(CCCC3)C2=O)cc1 | 2.77 µM | 0.0015 µM | 0.0036 µM | 0.093 µM | 2.17 µM | 0.0096 µM | – | – | – | – | – | – | – | – | –
NS(=O)(=O)c1ccc(CCNC(=O)CN2C(=O)NC3(CCCCC3)C2=O)cc1 | 0.626 µM | 0.0071 µM | 0.0069 µM | 0.0767 µM | 7.41 µM | 0.0866 µM | 0.534 µM | 8.01 µM | > 10 µM | > 10 µM | 7.32 µM | – | – | – | –
NS(=O)(=O)c1ccc(C[Se]c2ccc(NC(=O)CN3C(=O)NC4(CCCCC4)C3=O)cc2)cc1 | 0.0636 µM | 0.0196 µM | 0.0002 µM | 0.0033 µM | > 10 µM | 0.0041 µM | – | – | – | – | – | – | – | – | –
NS(=O)(=O)c1ccc(NC(=O)CN2C(=O)NC3(CCCC3)C2=O)cc1 | 0.141 µM | 0.0007 µM | 0.0008 µM | 0.0119 µM | > 10 µM | 0.0537 µM | – | – | – | – | – | – | – | Active | Dose-dependent effect

More lines, in order of falling Ki [1], values ahead:

Ki [1] | Ki [2] | Ki [4] | Ki [5] | Ki [6] | Ki [7] | Ki [9] | Ki [10] | Ki [11] | Ki [12] | Ki [13] | SMILES | Activity [3] | Activity [8] | Activity [14] | Activity [15]
6.33 µM | 0.0069 µM | 0.0047 µM | 0.122 µM | > 10 µM | 0.0062 µM | 3.94 µM | 9.66 µM | > 10 µM | > 10 µM | > 10 µM | NS(=O)(=O)c1ccc(CCNC(=O)CN2C(=O)NC3(CCCC3)C2=O)cc1 | – | – | – | –
0.649 µM | 0.0471 µM | 0.0037 µM | 0.0035 µM | > 10 µM | 0.0623 µM | – | – | – | – | – | NS(=O)(=O)c1ccc(CNC(=O)CN2C(=O)NC3(CCCCCC3)C2=O)cc1 | – | – | – | –
0.491 µM | 0.00071 µM | 0.0051 µM | 0.0331 µM | > 10 µM | 0.0629 µM | 6.18 µM | 6.49 µM | > 10 µM | > 10 µM | > 10 µM | NS(=O)(=O)c1ccc(CCNC(=O)CN2C(=O)NC3(CCCCCC3)C2=O)cc1 | – | – | – | –
0.384 µM | 0.0228 µM | 0.0047 µM | 0.0064 µM | 0.0884 µM | 0.0494 µM | – | – | – | – | – | NS(=O)(=O)c1ccc(C[Se]c2ccc(NC(=O)CN3C(=O)NC4(CCCCCC4)C3=O)cc2)cc1 | Active | – | – | –
0.237 µM | 0.0012 µM | 0.0008 µM | 0.0043 µM | > 10 µM | 0.0428 µM | – | – | – | – | – | NS(=O)(=O)c1ccc(NC(=O)CN2C(=O)NC3(CCCCCC3)C2=O)cc1 | – | – | – | –
0.0803 µM | 0.0008 µM | 0.0015 µM | 0.0026 µM | 5.78 µM | 0.0397 µM | – | – | – | – | – | CC1CCCC2(C1)NC(=O)N(CC(=O)Nc1ccc(S(N)(=O)=O)cc1)C2=O (stereo not given) | – | – | – | –
0.0623 µM | 0.0007 µM | 0.0047 µM | 0.0178 µM | 0.767 µM | 0.0086 µM | – | – | – | – | – | CC1CCCC2(C1)NC(=O)N(CC(=O)Nc1ccc([Se]Cc3ccc(S(N)(=O)=O)cc3)cc1)C2=O (stereo not given) | Active | – | – | –
0.0075 µM | 0.0031 µM | 0.0013 µM | 0.0033 µM | 0.809 µM | 0.0466 µM | – | – | – | – | – | NS(=O)(=O)c1ccc(NC(=O)CN2C(=O)NC3(CCCCC3)C2=O)cc1 | – | inactive | – | –
